Where two headings read alike, the source gives them in different places.
What was measured:
[1] = target: T1, récepteur estrogène de l'utérus de souris (Mus musculus, UniProt P19785); test: Relative binding affinity (ARL) for the estrogen receptor, mouse uterus cytosol, displacement of tritiated estradiol; conditions: ARL = 100 (CH)/(CX), estradiol = 100, head prints 0°C; for Récepteurs Oestrogène Temps d'incubation à 0°C 2H (affinité relative de liaison, ARL): incubation 2H; for Récepteurs Oestrogène Temps d'incubation à 0°C 5H (affinité relative de liaison, ARL): incubation 5H (second time)
T1 construct: les utérus sont prélevés puis homogénéisés a 0°C; from tissue; host or cells: uterus of immature female mice (18-21 days), cytosol (105 000 g supernatant)
T1 sequence (P19785 1-599): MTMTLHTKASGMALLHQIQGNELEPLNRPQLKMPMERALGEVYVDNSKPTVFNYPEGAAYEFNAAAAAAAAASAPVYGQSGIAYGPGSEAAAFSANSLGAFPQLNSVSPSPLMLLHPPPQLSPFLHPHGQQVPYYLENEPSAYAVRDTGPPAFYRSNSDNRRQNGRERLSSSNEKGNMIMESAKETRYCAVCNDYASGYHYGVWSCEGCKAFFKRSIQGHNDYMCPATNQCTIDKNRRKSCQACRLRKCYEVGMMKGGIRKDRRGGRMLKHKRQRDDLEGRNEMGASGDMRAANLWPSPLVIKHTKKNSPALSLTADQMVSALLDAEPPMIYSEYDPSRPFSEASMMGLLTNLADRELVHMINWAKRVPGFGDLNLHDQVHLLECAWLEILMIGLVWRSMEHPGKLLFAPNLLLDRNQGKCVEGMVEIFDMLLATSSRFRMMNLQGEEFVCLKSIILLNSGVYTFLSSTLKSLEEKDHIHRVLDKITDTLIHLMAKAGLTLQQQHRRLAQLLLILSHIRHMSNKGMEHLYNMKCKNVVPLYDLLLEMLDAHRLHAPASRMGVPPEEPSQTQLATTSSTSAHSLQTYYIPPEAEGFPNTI
Experimental: Des souris femelles impubères âgées de 18 a 21 jours sont sacrifiées, les utérus sont prélevés puis homogénéisés a 0°C à l'aide d'un Potter teflon-verre dans une solution tamponnée TS (Tris 10 mM, saccharose 0,25 M, HCl pH 7,4 (1 g de tissu pour 25 ml de TS). L'homogénat est ensuite ultracentrifugé (105 000 g x 90 mn) à 0°C. Des aliquotes du surnageant ainsi obtenu, sont incubées a 0°C ou a 25°C pendant un temps (t) avec une concentration constante (T) d'estradiol tritié en présence de concentrations croissantes (0 - 1000.10^-9 M) soit d'estradiol froid, soit du produit froid a tester. La concentration d'estradiol tritié lié (B) est ensuite mesurée dans chaque incubat par la technique d'adsorption au charbon-dextran.
Le calcul de l'affinité relative de liaison (ARL) est identique pour tous les récepteurs.
On trace les 2 courbes suivantes : le pourcentage de l'hormone tritiée liée (B)/(T) [formula] en fonction du logarithme de la concentration de l'hormone de référence froide et (B)/(T) [formula] en fonction du logarithme de la concentration du produit froid testé.
On détermine la droite d'équation I50 = ((B)/(T)max +(B)/(T)min)/2. [formula] (B)/(T) [formula] max = Pourcentage de l'hormone tritiée liée pour une incubation de cette hormone tritiée à la concentration (T). (B)/(T) [formula] min = Pourcentage de l'hormone tritiée liée pour une incubation de cette hormone tritiée à la concentration (T) en présence d'un grand excès d'hormone froide (2500.10^-9M).
Les intersections de la droit I50 et des courbes permettent d'évaluer les concentrations de l'hormone de référence froide (CH) et du produit froid testé (CX) qui inhibent de 50 % la liaison de l'hormone tritiée sur le récepteur.
L'affinité relative de liaison (ARL) du produit testé est déterminée par l'équation ARL = 100((CH))/((CX)). [formula]

[2] = test system: cellules tumorales mammaires MCF-7; test: Anti-proliferative activity on growth of MCF-7 mammary tumour cells (DNA assay with DABA); assay type: cell-based; conditions: Homo sapiens, MCF7, 144 h, read-out: CI50 (concentration qui inhibe de 50 % la croissance des cellules MCF7)
Experimental: Les lignées MCF-7 sont maintenues en culture en milieu SVF(1) à 37°C en atmosphère humide contenant 5 % CO2. Les cellules à subconfluence sont récoltées par trypsination (trypsine 0,05 %, EDTA 0,02 %) puis rincées par centrifugation douce. Un échantillon des cellules en suspension est compté sur cellule de Malassez.
Les cellules resuspendues dans le milieu SVF sont ensemencées à raison de 30.000 cellules par puits dans des plaques multipuits (24 puits de 2,5 cm^2). Vingt quatre heures après l'ensemencement (JO), le produit à tester est ajouté au milieu en solution éthanolique (concentration finale en éthanol : 0,1 %), à la concentration de 10^-12 à 10^-6M, les puits contrôles recevant la même concentration en éthanol. Les milieux sont renouvelés toutes les 48 heures. En fin d'expérience (J6), le milieu est aspiré et les cellules sont immédiatement fixées par 150 microlitres de méthanol afin de doser l'ADN.
L'activité anti-proliférative des produits est évaluée par leur capacité à inhiber l'augmentation d'ADN.
L'ADN est dosé par une méthode fluorimétrique utilisant le DABA (Acide 3,5 diaminobenzoïque) (2) : 150 microlitres de DABA sont ajoutés dans chaque puits; les plaques sont alors incubées 45 mn à 56°C, puis 2 ml d'HCl 1N sont ajoutés. La fluorescence est mesurée à l'aide d'un fluorimètre (longueur d'onde excitatrice : 408 nm, longueur d'onde d'émission : 510 nm).
La quantité d'ADN par puits est évaluée par rapport à une gamme étalon obtenue en traitant dans les mêmes conditions un standard d'ADN de thymus de veau.
La concentration en nm qui inhibe de 50 % la croissance des cellules MCF7 (CI50) a été déterminée de la manière indiquée ci-dessus : […]

[3] = MCF-7, product 10^-12 to 10^-6M, 6 days (J6), DNA measured

SMILES	Récepteurs Oestrogène Temps d'incubation à 0°C 2H (affinité relative de liaison, ARL) [1]	Récepteurs Oestrogène Temps d'incubation à 0°C 5H (affinité relative de liaison, ARL) [1]	IC50 [2, 3]	IC50 [2]	Récepteurs Oestrogène Temps d'incubation à 0°C 5H (affinité relative de liaison, ARL) ([1]; listed as exemple 14)
CCCCN(C)C(=O)COCCCCCCOc1ccc([C@H]2C[C@]3(C)[C@@H](O)CC[C@H]3[C@@H]3CCc4cc(O)ccc4[C@H]32)cc1 [Exemple 6]	3,3	29	0.007 nM	–	–
CCCCN(C)C(=O)CSCCCCCc1ccc([C@H]2C[C@]3(C)[C@@H](O)CC[C@H]3[C@@H]3CCc4cc(O)ccc4[C@H]32)cc1 [Exemple 9, N-butyl-2-((5-(4-(3,17béta-dihydroxy-estra-1,3,5(10)-trien-11béta-yl)phényl)pentyl)thio)-N-méthyl-acétamide]	–	11,7	0.009 nM	–	–
CCCCN(C)C(=S)CCCCCCCOc1ccc([C@H]2C[C@]3(C)[C@@H](O)CC[C@H]3[C@@H]3CCc4cc(O)ccc4[C@H]32)cc1 [Exemple 2, N-butyl-8-(4-(3,17béta-dihydroxy-estra-1,3,5(10)-trien-11béta-yl)phénoxy)-N-méthyl-octanethioamide]	–	16	0.035 nM	–	–
CN(CC(F)(F)C(F)(F)C(F)(F)F)C(=O)CCCCCCCOc1ccc([C@H]2C[C@]3(C)[C@@H](O)CC[C@H]3[C@@H]3CCc4cc(O)ccc4[C@H]32)cc1 [Exemple 5, 8-(4-(3,17béta-dihydroxy-estra-1,3,5(10)-trien-11béta-yl)phénoxy)-N-(2,2,3,3,4,4,4-heptafluorobutyl)-N-méthyl-octanamide]	0	23	–	0.02 nM	–
CCCCN(C)C(=S)COCCCCCOc1ccc([C@H]2C[C@]3(C)[C@@H](O)CC[C@H]3[C@@H]3CCc4cc(O)ccc4[C@H]32)cc1 [Exemple 1]	–	20	0.03 nM	–	–
C#C[C@]1(O)CC[C@H]2[C@@H]3CCc4cc(O)ccc4[C@H]3[C@@H](CCCCCCCCOCC(=O)N(C)C(C)C)C[C@@]21C [Exemple 14, 2-((8-(3,17béta-dihydroxy19-nor-17alpha-pregna-1,3,5(10)-trien-20-yn-11béta-yl)octyl)oxy)-N-méthyl-N-(1-méthyléthyl)-acétamide]	2,8	47	0.015 nM	–	affinité marquée
CCCCN(C)C(=S)CSCCCCCOc1ccc([C@H]2C[C@]3(C)[C@@H](O)CC[C@H]3[C@@H]3CCc4cc(O)ccc4[C@H]32)cc1 [Exemple 18]	–	16	–	–	–
